Patent US12532884B2, “Fungicidal compositions” (SYNGENTA CROP PROTECTION AG, priority 2020, dated 2026)
Read-outs that look alike come from different tables or passages of the source.

Columns and labels:
[1] = system: Glomerella lagenarium syn. Colletotrichum lagenarium; assay: Example C4: mixtures against Glomerella lagenarium syn. Colletotrichum lagenarium (anthracnose), liquid culture; assay type: cell-based; conditions: single component; for inhibition at 0.3 ppm / inhibition at 0.1 ppm: Colletotrichum orbiculare
Text: (§1) Certain mixture compositions comprising a compound of formula (I) described above may show a synergistic effect. This occurs whenever the action of an active ingredient combination is greater than the sum of the actions of the individual components. The action to be expected E for a given active ingredient combination obeys the so-called COLBY formula and can be calculated as follows (COLBY, S. R. “Calculating synergistic and antagonistic responses of herbicide combination”. Weeds, Vol. 15, pages 20-22; 1967): • ppm=milligrams of active ingredient (=a.i.) per liter of spray mixture • X=% action by active ingredient A) using p ppm of active ingredient • Y=% action by active ingredient B) using q ppm of active ingredient.
(§2) According to COLBY, the expected (additive) action of active ingredients A)+B) using p+q ppm of active ingredient is:
(§3) If the action actually observed (O) is greater than the expected action (E), then the action of the combination is super-additive, i.e. there is a synergistic effect. In mathematical terms, synergism corresponds to a positive value for the difference of (O-E). In the case of purely complementary addition of activities (expected activity), said difference (O-E) is zero. A negative value of said difference (O-E) signals a loss of activity compared to the expected activity.
(§4) Mycelia fragments or conidia suspensions of a fungus prepared either freshly from liquid cultures of the fungus or from cryogenic storage, are directly mixed into nutrient broth. DMSO solutions of the test compound (max. 10 mg/mL) are diluted with 0.025% Tween20 by a factor of 50 and 10 μl of this solution is pipetted into a microtiter plate (96-well format). The nutrient broth containing the fungal spores/mycelia fragments is then added to give an end concentration of the tested compound. The test plates are incubated in the dark at 24° C. and 96% relative humidity. The inhibition of fungal growth is determined photometrically after 2 to 7 days, depending on the pathosystem, and percent antifungal activity relative to the untreated check is calculated.
(§5) Conidia of the fungus from cryogenic storage were directly mixed into nutrient broth (PDB potato dextrose broth). A DMSO solution of the test compounds was placed into a microtiter plate (96-well format) and the nutrient broth containing the fungal spores was added to it.
The following mixture compositions at the reported concentration (in ppm) in tables C4-3 and C4-4 gave the following disease control in this test (Glomerella lagenarium syn. Colletotrichum lagenarium). Fungicidal activity was evaluated on a 100-0 scale (100=no disease growth; 0=well completely covered by mycelium).

Septoria tritici = assay: Example C2: mixtures against Septoria tritici (leaf blotch), liquid culture; assay type: cell-based; conditions: for inhibition at 0.3 ppm: read-out: Activity (%)
Text: as §1, §2, §3, §4, §5
The following mixture compositions at the reported concentration (in ppm) in tables C2-3 to C2-5 gave the following disease control in this test Septoria tritici (leaf blotch). Fungicidal activity was evaluated on a 100-0 scale (100=no disease growth; 0=well completely covered by mycelium).

Septoria glycines = assay: Example C3: mixtures against Septoria glycines (brown spot), liquid culture; assay type: cell-based; conditions: for inhibition at 0.1 ppm / inhibition at 0.3 ppm: Septoria glycines, read-out: Activity (%)
Text: This occurs whenever the action of an active ingredient combination is greater than the sum of the actions of the individual components. The action to be expected E for a given active ingredient combination obeys the so-called COLBY formula and can be calculated as follows (COLBY, S. R. “Calculating synergistic and antagonistic responses of herbicide combination”. Weeds, Vol. 15, pages 20-22; 1967): • ppm=milligrams of active ingredient (=a.i.) per liter of spray mixture • X=% action by active ingredient A) using p ppm of active ingredient • Y=% action by active ingredient B) using q ppm of active ingredient.
as §2, §3
as §4, with “The nutrient broth containing the fungal spores/mycelia fragments is then added to give an end concentration of the tested compound.” left out
Conidia of the fungus harvested from a fresh culture grown on artificial media, were directly mixed into nutrient broth (PDB potato dextrose broth). A DMSO solution of the test compounds was placed into a microtiter plate (96-well format) and the nutrient broth containing the fungal spores was added to it.
Fungicidal activity was evaluated on a 100-0 scale (100=no disease growth; 0=well completely covered by mycelium).

Corynespora cassiicola = assay: Example C5: mixtures against Corynespora cassiicola (target leaf spot), liquid culture; assay type: cell-based; conditions: Corynespora cassiicola, single component
Text: as §1, §2, §3, §4
Conidia of the fungus from cryogenic storage were directly mixed into nutrient broth (PDB potato dextrose broth). A DMSO solution of the test compounds was placed into a microtiter plate (96-well format) and the nutrient broth containing the fungal spores was added to it. The test plates were incubated at 24 C and the inhibition of growth was determined photometrically after 3-4 days at 620 nm.
The following mixture compositions at the reported concentration (in ppm) in tables C4-3 and C4-4 gave the following disease control in this test (Corynespora cassiicola). Fungicidal activity was evaluated on a 100-0 scale (100=no disease growth; 0=well completely covered by mycelium).

[2] = system: Puccinia recondita (Brown rust); assay: Example B: comparative biological activity against Puccinia recondita (brown rust), curative, wheat leaf segments; assay type: in vivo; conditions: 8 dpi
Experimental: Method; Wheat leaf segments are placed on agar in multiwell plates (24-well format). The leaf segments are inoculated with a spore suspension of the fungus and sprayed with test solutions 1 day after inoculation. After appropriate incubation the activity of a compound is assessed 8 dpi (days after inoculation) as curative fungicidal activity.
The data are presented as the percentage of disease control of each compound for the biological tests and testing rates described below in table B1.

[3] = system: Mycosphaerella arachidis syn. Cercospora arachidicola; assay: Example C1: mixtures against Mycosphaerella arachidis syn. Cercospora arachidicola (brown leaf spot), liquid culture; assay type: cell-based; conditions: single component, 100-0 scale (100=no disease growth)
Text: as §1, §2, §3, §4, §5
The following mixture compositions at the reported concentration (in ppm) in tables C1-3 and C1-4 gave the following disease control in this test Mycosphaerella arachidis syn. Cercospora arachidicola (Brown leaf spot of peanut). Fungicidal activity was evaluated on a 100-0 scale (100=no disease growth; 0=well completely covered by mycelium).

Phakopsora pachyrhizi = assay: Example D: preventative activity against Phakopsora pachyrhizi on soybean (whole plants sprayed, leaf disks inoculated); assay type: in vivo; conditions: applied alone; for inhibition at 450 g/ha / inhibition at 900 g/ha: Phakopsora pachyrhizi, foliar, read-out: Observed Activity (% of untreated)
Text: as §1, §2, §3
Whole soybean plants are treated with the recited active ingredients 4 weeks after planting. 1 day after spraying leaf disks are cut from the first trifoliate leaf. Five repetitions at each rate are conducted. The leaf disks are inoculated with Phakopsora pachyrhizi (Asian soybean rust) one day after treatment. Evaluation of the leaf disks is conducted 11 to 14 days after inoculation and the activity is derived from the relation of the treated vs untreated, infested check. (100=no disease, no damage to the leaf, 0=high infestation, leaf damaged heavily). The rates of the active ingredients used are given in the tables as g active ingredient (a.i.)/ha.

[4] = single component, 0.1 ppm, 100-0 scale (100=no disease growth)
[5] = single component, 0.3 ppm, 100-0 scale
[6] = Zymoseptoria tritici, single component, 0.3 ppm, 100-0 scale
[7] = single component, 0.3 ppm, 100-0 scale (100=no disease growth)

Molecule: Cn1cc(C(=O)Nc2cccc3c2[C@@H]2CC[C@H]3C2=C(Cl)Cl)c(C(F)F)n1 (racemic) [benzovindiflupyr]
- Activity (%) ([1]; 0.1 ppm): 50%
- Activity (%) (Septoria tritici; [4]): 50%
- Activity (%) (Septoria tritici; [5]): 70%
- Activity (%) (Septoria glycines; single component, 0.1 ppm): 70%
- Activity (%) (Septoria glycines; [4]): 70%

Molecule: CC(O)(Cn1cncn1)c1ccc(Oc2ccc(Br)cc2)nc1C(F)(F)F (centres unmarked) [2-[6-(4-bromophenoxy)-2-(trifluoromethyl)-3-pyridyl]-1-(1,2,4-triazol-1-yl)propan-2-ol]
- inhibition at 0.3 ppm ([1]; 0.3 ppm): 0%

Molecule: O=C(Nc1ccccc1F)c1ccc(-c2noc(C(F)(F)F)n2)cc1 [N-(2-fluorophenyl)-4-[5-(trifluoromethyl)-1,2,4-oxadiazol-3-yl]benzamide]
- inhibition at 10 ppm (Corynespora cassiicola; 10 ppm): 0%
- inhibition at 20 ppm (Corynespora cassiicola; 20 ppm): 0%
- inhibition at 10 ppm (Septoria tritici; Zymoseptoria tritici, single component, 10 ppm, 100-0 scale): 0%
- inhibition at 20 ppm (Septoria tritici; Zymoseptoria tritici, single component, 20 ppm, 100-0 scale): 0%

Molecule: CO/C=C(\Oc1cc(C#CC2CCCCC2)ccc1C)C(=O)OC [Reference Compound Z-1, reference compound]
- control (%) ([2]; 20 ppm): 0%
- control (%) ([2]; 60 ppm): 0%
- control (%) ([2]; 200 ppm): 0%

Molecule: CO/C=C(\Oc1cccc(C(C)(C)C)c1)C(=O)OC [Reference Compound Z-2, reference compound]
- control (%) ([2]; 20 ppm): 0%
- control (%) ([2]; 60 ppm): 0%
- control (%) ([2]; 200 ppm): 0%

Molecule: Cc1ccc(C(=O)OCc2ccc(Oc3ccccc3)cc2)c(N)n1 [aminopyrifen]
- Activity (%) ([1]; 0.1 ppm): 20%
- Activity (%) ([1]; 0.3 ppm): 50%

Molecule: N#Cc1c(Cl)c(Cl)c(Cl)c(C#N)c1Cl [chlorothalonil, reference compound]
- inhibition at 0.1 ppm ([3]; Mycosphaerella arachidis, 0.1 ppm): 20%
- inhibition at 450 g/ha (Phakopsora pachyrhizi; 450 g/ha): 8%
- inhibition at 900 g/ha (Phakopsora pachyrhizi): 7%
- inhibition at 0.1 ppm (Septoria tritici; Zymoseptoria tritici, single component, 0.1 ppm, 100-0 scale (100=no disease growth)): 20%
- inhibition at 0.3 ppm (Septoria tritici; [6]): 50%
- inhibition at 0.1 ppm (Septoria glycines; [4]): 0%
- inhibition at 0.3 ppm (Septoria glycines; [7]): 20%

Molecule: CC(C1CC1)C(O)(Cn1cncn1)c1ccc(Cl)cc1 (centres unmarked) [cyproconazole]
- inhibition at 0.3 ppm (Septoria tritici; [6]): 50%
- inhibition at 0.1 ppm (Septoria glycines; [4]): 20%

Molecule: COc1ccnc(C(=O)N[C@H]2COC(=O)[C@H](Cc3ccccc3)[C@@H](OC(=O)C(C)C)[C@H](C)OC2=O)c1OCOC(=O)C(C)C [fenpicoxamid]
- Activity (%) ([1]; 0.1 ppm): 20%
- Activity (%) ([1]; 0.3 ppm): 70%

Molecule: N#Cc1c[nH]cc1-c1cccc2c1OC(F)(F)O2 [fludioxonil]
- inhibition at 0.3 ppm (Septoria tritici; Zymoseptoria tritici): 20%
- inhibition at 0.1 ppm (Septoria glycines): 0%
- inhibition at 0.3 ppm (Septoria glycines): 20%

Molecule: O=C1c2ccccc2C(=O)N1SC(Cl)(Cl)Cl [folpet, reference compound]
- inhibition at 0.3 ppm ([3]; Mycosphaerella arachidis, 0.3 ppm): 20%
- inhibition at 0.1 ppm ([1]; 0.1 ppm): 20%
- inhibition at 0.3 ppm ([1]; 0.3 ppm): 70%
- inhibition at 450 g/ha (Phakopsora pachyrhizi; 450 g/ha): 4%
- inhibition at 900 g/ha (Phakopsora pachyrhizi): 13%
- inhibition at 0.3 ppm (Septoria tritici; [6]): 20%
- inhibition at 0.1 ppm (Septoria glycines; [4]): 0%
- inhibition at 0.3 ppm (Septoria glycines; [7]): 0%

Molecule: Cc1nc2c(F)c(F)ccc2cc1Oc1cccc(F)c1C(C)(C)O [ipflufenoquin, reference compound]
- Activity (%) ([3]; 0.3 ppm): 0%
- Activity (%) ([1]; 0.1 ppm): 50%
- Activity (%) (Septoria tritici; [4]): 20%
- Activity (%) (Septoria tritici; [5]): 20%
- Activity (%) (Septoria glycines; single component, 0.1 ppm): 0%
- Activity (%) (Septoria glycines; [4]): 0%
- Activity (%) (Septoria glycines; single component, 0.3 ppm): 20%
- Activity (%) (Septoria glycines; [7]): 20%

Molecule: CC(C)C1C2CCC1c1c(NC(=O)c3cn(C)nc3C(F)F)cccc12 (centres unmarked) [isopyrazam]
- Activity (%) (Septoria tritici; [4]): 50%
- Activity (%) (Septoria tritici; [5]): 70%
- Activity (%) (Septoria glycines; single component, 0.1 ppm): 70%
- Activity (%) (Septoria glycines; [4]): 70%
- Activity (%) (Septoria glycines; single component, 0.3 ppm): 70%
- Activity (%) (Septoria glycines; [7]): 70%

Molecule: CC(O)(Cn1cncn1)c1ccc(Oc2ccc(Cl)cc2)cc1C(F)(F)F (centres unmarked) [mefentrifluconazole]
- Activity (%) ([1]; 0.3 ppm): 0%

Molecule: OC(Cc1ccccc1Cl)(Cn1nc[nH]c1=S)C1(Cl)CC1 (centres unmarked) [prothioconazole]
- inhibition at 0.1 ppm ([1]; 0.1 ppm): 20%
- inhibition at 0.3 ppm ([1]; 0.3 ppm): 70%

Molecule: mancozeb [reference compound]
- Activity (%) ([3]; 0.1 ppm): 0%
- Activity (%) ([3]; 0.3 ppm): 0%
- Activity (%) ([1]; 0.1 ppm): 0%
- Activity (%) ([1]; 0.3 ppm): 20%
- Observed Activity (% of untreated) (Phakopsora pachyrhizi; 225 g/ha): 27%
- Observed Activity (% of untreated) (Phakopsora pachyrhizi; 450 g/ha): 39%
- Activity (%) (Septoria glycines; [4]): 0%
- Activity (%) (Septoria glycines; [7]): 0%
